Where two headings read alike, the source gives them in different places.
Columns and labels:
ConA [1] = biological target: T1, ConA (Canavalia ensiformis, UniProt P02866); assay type: binding
Experimental: A PBS-T (0.05%) solution containing glucose, maltose, GlcNAc, galactose, or lactose as a sugar chain at a concentration of 400 mM was prepared.
First, a PBS-T (0.05%) solution containing ConA or RCA120 at a concentration of 2 μM was prepared as a lectin solution, and the lectin solution was introduced to 96-well titer plate by adding 10 μl in each well. Then, a glucose solution, a maltose solution, or a GlcNAc solution was added to a ConA-added well by 20 μl in each well. A galactose solution or a lactose solution was added to a RCA120-added well by 20 μl in each well. The resulting solutions were stirred at a room temperature for 1 hour. […] The resulting solutions were stirred at a room temperature for 1 hour. After the stirring, absorbance of the stirred solutions at 525 nm was measured.
Values below the “after” column are IC50 obtained in a case where the sugar chain was added to an aggregate of the lectin and the colloid solution. Values below the “before” column are IC50 obtained in a case where the colloid solution was added to the admixture of the lectin and the sugar chain.

RCA120 = RCA120 (Ricinus communis, UniProt P06750); assay type: binding, caster bean; set-up: key to Degree of dissociation: ⊚: lectin was completely dissociated; ◯: lectin was almost completely dissociated; Δ: lectin was dissociated with residual sugar-protein interactant (aggregate); X: the lactose-RCA120 interactant kept in aggregated state, and lectin was not dissociated therefrom
ConA [2] = biological target: T1, ConA; assay: Dissociation of ConA from maltose-ConA interactant by added glucose; assay type: binding; details: visual observation
Experimental: 100 μl of PBS-T (0.05%) solution containing ConA at 250 μg/ml was placed in an Eppendorf tube. […] Then, a mixture solution was vortexed for at least 10 seconds. Thereafter, the resulting mixture solution was left for approximately 2 hours, and a sugar-protein interactant was precipitated out of the mixture solution by centrifugation. Then, supernatant thereof was removed, and the sugar-protein interactant was washed with PBS-T (0.05%) solution and water several times. After the washing, 100 μl of 200 mM glucose aqueous solution was added to the sugar-protein interactant, and the resulting mixture solution was left for approximately 1 hour.
First, 25 μl of PBS-T (0.05%) solution containing RCA120 at 250 μg/ml was placed in an Eppendorf tube. To the solution was added 25 μl of the colloid solution of lactose-immobilized gold nanoparticles which was prepared in Example 4. Then, a mixture solution was vortexed for at least 10 seconds. Thereafter, the resulting mixture solution was left for approximately 2 hours, and a sugar-protein interactant (lactose-RCA interactant) was precipitated out of the mixture solution by centrifugation. Then, supernatant thereof was removed, and the sugar-protein interactant was washed with PBS-T (0.05%) solution and water several times. […] The results were evaluated by visual observation and UV-Vis measurement. […]

SMILES	IC50 (ConA [1]; read-out: IC50 after) [mM]	IC50 (ConA [1]; read-out: IC50 before) [mM]	Degree of dissociation (RCA120)	concentration of added sugar solution at which excellent RCA120 dissociation was observed (RCA120) [mM]	concentration of added sugar solution at which excellent ConA dissociation was observed (ConA [2]) [mM]
CC(=O)N[C@H]1C(O)O[C@H](CO)[C@@H](O)[C@@H]1O (some centres unmarked) [GlcNAc, N-acetyl glucosamine]	80.1	22.9	–	–	–
O=C[C@H](O)[C@@H](O)[C@@H](O)[C@H](O)CO [galactose]	–	–	Δ and X and ◯	≥ 25	≥ 50

Reference: patent US8067393B2 (priority 2005, dated 2011)
